Starred links: 1 amine or outer side, 2 acyl side, 3 side chain; linkers in the order of their positions; H or OH if unused. Positions of bridges follow the written chain, without caps; N, C: chain ends. Non-standard residues stand in square brackets, D forms with d. Residues, ends and D or L forms follow the SMILES beside them. *: point of attachment. X27 = C[N+](C)(C)CCc1cn(-c2ccc(C[C@H](N[*:1])C(=O)[*:2])cc2)nn1; Me3N+(CH2)2O(CH2)2O(CH2)2CO = C[N+](C)(C)CCOCCOCCC(=O)*; CH2CH2OCH2CH2OCH2CH2NMe3+ = C[N+](C)(C)CCOCCOCC*; Trp(7-Me) = Cc1cccc2c(C[C@H](N)C(=O)O)c[nH]c12; 2Nal = N[C@@H](Cc1ccc2ccccc2c1)C(=O)O; AEF = NCCOc1ccc(C[C@H](N)C(=O)O)cc1; 3Pal = N[C@@H](Cc1cccnc1)C(=O)O; Lys(Me) = CNCCCC[C@H](N)C(=O)O; Agb = N=C(N)NCC[C@H](N)C(=O)O; Pen = CC(C)(S)[C@H](N)C(=O)O; Thp = NC1(C(=O)O)CCOCC1; X3 = C[N+](C)(C)CCCCC*; Sar = CNCC(=O)O
Columns and labels:
[1] = Exposed Polar Surface Area (EPSA); type: physicochemical; details: SFC on Chirex 3014 column; sample 1 mM DMSO stock; read-out: EPSA
Summary of the method: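 Polarity descriptor in Å² derived from retention time using 8 calibration standards re-run every 20 compounds. Duplicate injections of 1 mM DMSO stock; linear 5–60% modifier gradient (20 mM ammonium formate in MeOH) with CO2 at 4 mL/min, 35 °C, on a Chirex 3014 column.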

[2] = molecular target: T1, IL-23R (Homo sapiens, UniProt Q5VWK5); test: IL23R Reporter Assay; type: cell-based; details: HEK293 cells containing IL-23R, IL-12RP1 and STAT-inducible firefly luciferase reporter; 10 ng/mL IL-23 (EC90); 5 h at 37° C.; read-out: IL23R Reporter Assay
T1 construct: host or cells: HEK293
T1 sequence (Q5VWK5 24-629): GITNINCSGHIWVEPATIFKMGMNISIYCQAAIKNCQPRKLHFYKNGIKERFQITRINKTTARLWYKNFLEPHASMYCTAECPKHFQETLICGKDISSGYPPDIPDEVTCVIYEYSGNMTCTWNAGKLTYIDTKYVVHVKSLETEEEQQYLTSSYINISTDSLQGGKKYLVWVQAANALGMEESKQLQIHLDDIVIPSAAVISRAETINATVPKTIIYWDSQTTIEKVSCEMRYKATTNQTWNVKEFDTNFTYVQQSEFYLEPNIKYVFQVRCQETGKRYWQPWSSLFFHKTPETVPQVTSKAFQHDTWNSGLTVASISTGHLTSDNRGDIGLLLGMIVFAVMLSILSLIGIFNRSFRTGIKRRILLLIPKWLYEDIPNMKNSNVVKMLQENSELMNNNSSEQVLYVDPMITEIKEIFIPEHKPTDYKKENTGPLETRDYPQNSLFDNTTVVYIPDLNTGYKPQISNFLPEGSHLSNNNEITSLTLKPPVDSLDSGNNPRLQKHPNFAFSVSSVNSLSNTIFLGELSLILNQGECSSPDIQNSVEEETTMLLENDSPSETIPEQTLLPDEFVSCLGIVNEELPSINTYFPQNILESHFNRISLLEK

| Structure (SMILES) | EPSA [1] [A^2] | IC50 [2] [nM] |
| --- | --- | --- |
| CC(=O)NCCCC[C@@H]1NC(=O)[C@H](Cc2c[nH]c3c(C)cccc23)NC(=O)[C@H]([C@@H](C)O)NC(=O)[C@H](CC(N)=O)NC(=O)[C@@H](NC(C)=O)C(C)(C)SSC(C)(C)[C@@H](C(=O)N[C@@H](Cc2ccc(OCCN)cc2)C(=O)N[C@@H](Cc2ccc3ccccc3c2)C(=O)NC2(C(=O)N[C@@H](CCCCNC(C)=O)C(=O)N[C@@H](CC(N)=O)C(=O)N(C)C)CCOCC2)NC1=O [compound 153] (Ac-[Pen]NT[Trp(7-Me)]K(Ac)[Pen][AEF][2Nal][Thp]K(Ac)N-NMe2; disulfide 1-6 (inferred)) | 171 | 270 |
| CC(=O)N(C)CCCC[C@@H]1NC(=O)[C@H](Cc2c[nH]c3c(C)cccc23)NC(=O)[C@H]([C@@H](C)O)NC(=O)[C@H](CCNC(=N)N)NC(=O)[C@@H](NC(=O)CCOCCOCC[N+](C)(C)C)C(C)(C)SSC(C)(C)[C@@H](C(=O)N[C@@H](Cc2ccc(OCCOCCOCC[N+](C)(C)C)cc2)C(=O)N[C@@H](Cc2ccc3ccccc3c2)C(=O)NC2(C(=O)N[C@@H](CCCCN(C)C(C)=O)C(=O)N[C@@H](CC(N)=O)C(=O)N[C@@H](Cc3cccnc3)C(=O)N(C)CC(=O)N(C)C)CCOCC2)NC1=O [compound 411, cPEG3aCO-Pen(3)-Gab-T-7MeW-K(NMeAc)-Pen(3)-APEG3F-2Nal-THP-K(NMeAc)-N-3Pya-Sar-CON(Me)2] ({Me3N+(CH2)2O(CH2)2O(CH2)2CO}-[Pen][Agb]T[Trp(7-Me)][Lys(Me)](Ac)[Pen]Y(CH2CH2OCH2CH2OCH2CH2NMe3+)[2Nal][Thp][Lys(Me)](Ac)N[3Pal][Sar]-NMe2; disulfide 1-6 (inferred)) | 155 | 2.1 |
| CC(=O)N(C)CCCC[C@@H]1NC(=O)[C@H](Cc2c[nH]c3c(C)cccc23)NC(=O)[C@H]([C@@H](C)O)NC(=O)[C@H](CC(=O)N(C)C)NC(=O)[C@@H](NC(=O)CCOCCOCC[N+](C)(C)C)C(C)(C)SSC(C)(C)[C@@H](C(=O)N[C@@H](Cc2ccc(-n3cc(CC[N+](C)(C)C)nn3)cc2)C(=O)N[C@@H](Cc2ccc3ccccc3c2)C(=O)NC2(C(=O)N[C@@H](CCCCN(C)C(C)=O)C(=O)N[C@@H](CC(N)=O)C(=O)N[C@@H](Cc3cccnc3)C(=O)N(C)CC(=O)N(C)C)CCOCC2)NC1=O [compound 333, cPEG3aCO-Pen(3)-N(N(Me)2)-T-7MeW-K(NMeAc)-Pen(3)-F(4TzlTMA2)-2Nal-THP-K(NMeAc)-N-3Pya-Sar-CON(Me)2] ({Me3N+(CH2)2O(CH2)2O(CH2)2CO}-[Pen]D(NMe2)T[Trp(7-Me)][Lys(Me)](Ac)[Pen][X27][2Nal][Thp][Lys(Me)](Ac)N[3Pal][Sar]-NMe2; disulfide 1-6) | 159 | 1.8 |
| CC(=O)NCCCC[C@@H]1NC(=O)[C@H](Cc2c[nH]c3c(C)cccc23)NC(=O)[C@H]([C@@H](C)O)NC(=O)[C@H](CC(N)=O)NC(=O)[C@@H](NC(=O)CCOCCOCC[N+](C)(C)C)C(C)(C)SSC(C)(C)[C@@H](C(=O)N[C@@H](Cc2ccc(OCCCCC[N+](C)(C)C)cc2)C(=O)N[C@@H](Cc2ccc3ccccc3c2)C(=O)NC2(C(=O)N[C@@H](CCCCNC(C)=O)C(=O)N[C@@H](CC(N)=O)C(=O)N[C@@H](Cc3cccnc3)C(=O)N(C)CC(N)=O)CCOCC2)NC1=O [compound 428, cPEG3aCO-Pen(3)-N-T-7MeW-K(Ac)-Pen(3)-TMAPF-2Nal-THP-K(Ac)-N-3Pya-Sar-CONH2] ({Me3N+(CH2)2O(CH2)2O(CH2)2CO}-[Pen]NT[Trp(7-Me)]K(Ac)[Pen]Y(X3)[2Nal][Thp]K(Ac)N[3Pal][Sar]-NH2; disulfide 1-6) | 161 | 3.5 |

The next lines start with the values.

| EPSA [1] [A^2] | IC50 [2] [nM] | Structure (SMILES) |
| --- | --- | --- |
| 191 | 4.1 | CC(=O)NCCCC[C@@H]1NC(=O)[C@H](Cc2c[nH]c3c(C)cccc23)NC(=O)[C@H]([C@@H](C)O)NC(=O)[C@H](CC(N)=O)NC(=O)[C@@H](NC(=O)CCOCCOCC[N+](C)(C)C)C(C)(C)SSC(C)(C)[C@@H](C(=O)N[C@@H](Cc2ccc(OCCN)cc2)C(=O)N[C@@H](Cc2ccc3ccccc3c2)C(=O)NC2(C(=O)N[C@@H](CCC(=O)O)C(=O)N[C@@H](CC(N)=O)C(=O)N[C@@H](Cc3cncc(C)c3)C(=O)N(C)CC(N)=O)CCOCC2)NC1=O [compound 506, cPEG3aCO-Pen(3)-N-T-7MeW-K(Ac)-Pen(3)-AEF-2Nal-THP-E-N-5MePyridinAla-Sar-CONH2] |
| 186 | 1.8 | CC(=O)NCCCC[C@@H]1NC(=O)[C@H](Cc2c[nH]c3c(-c4cccc(NC(C)=O)c4)cccc23)NC(=O)[C@H]([C@@H](C)O)NC(=O)[C@H](CC(N)=O)NC(=O)[C@@H](NC(=O)CCOCCOCC[N+](C)(C)C)C(C)(C)SSC(C)(C)[C@@H](C(=O)N[C@@H](Cc2ccc(OCCNC(=N)N)cc2)C(=O)N[C@@H](Cc2ccc3ccccc3c2)C(=O)NC2(C(=O)N[C@@H](CCCCN(C)C(C)=O)C(=O)N[C@@H](CC(N)=O)C(=O)N[C@@H](Cc3cncc(C)c3)C(=O)N(C)CC(N)=O)CCOCC2)NC1=O [compound 519, cPEG3aCO-Pen(3)-N-T-7(3NAcPh)W-K(Ac)-Pen(3)-AEF(G)-2Nal-THP-K(NMeAc)-N-3Pya-Sar-CONH2] |
| 178 | 8.6 | CC(=O)NCCCC[C@@H]1NC(=O)[C@H](Cc2c[nH]c3c(-c4cccc(NC(C)=O)c4)cccc23)NC(=O)[C@H]([C@@H](C)O)NC(=O)[C@H](CC(N)=O)NC(=O)[C@@H](NC(C)=O)C(C)(C)SSC(C)(C)[C@@H](C(=O)N[C@@H](Cc2ccc(OCCCCC[N+](C)(C)C)cc2)C(=O)N[C@@H](Cc2ccc3ccccc3c2)C(=O)NC2(C(=O)N[C@@H](CCC(=O)O)C(=O)N[C@@H](CC(N)=O)C(=O)N[C@@H](Cc3cncc(C)c3)C(=O)N(C)CC(N)=O)CCOCC2)NC1=O [compound 504, MeCO-Pen(3)-N-T-7(3NAcPh)W-K(Ac)-Pen(3)-TMAPF-2Nal-THP-E-N-5MePyridinAla-Sar-CONH2] |
| 153 | 180 | CC(=O)N(C)CCCC[C@@H]1NC(=O)[C@H](Cc2c[nH]c3ccccc23)NC(=O)[C@H]([C@@H](C)O)NC(=O)[C@H](CC(=O)N(C)C)NC(=O)[C@@H](NC(=O)CCOCCOCC[N+](C)(C)C)C(C)(C)SSC(C)(C)[C@@H](C(=O)N[C@@H](Cc2ccc(OCCOCCOCC[N+](C)(C)C)cc2)C(=O)N[C@@H](Cc2c[nH]c3ccccc23)C(=O)NC2(C(=O)N[C@@H](CCCCN(C)C(C)=O)C(=O)N[C@@H](CC(N)=O)C(=O)N[C@H]3Cc4cnccc4N(CC(=O)N(C)C)C3=O)CCOCC2)NC1=O [compound 564, cPEG3aCO-Pen(3)-N(N(Me)2)-T-W-K(NMeAc)-Pen(3)-APEG3F-W-THP-K(NMeAc)-N-3Pya-Sar-CON(Me)2] |
| 201 | > 1220 | CC(=O)N(C)CCCC[C@@H]1NC(=O)[C@H](Cc2ccccc2)NC(=O)[C@H]([C@@H](C)O)NC(=O)[C@H](CC(=O)N(C)C)NC(=O)[C@@H](NC(=O)CCOCCOCC[N+](C)(C)C)C(C)(C)SSC(C)(C)[C@@H](C(=O)N[C@@H](Cc2ccc(OCCCCC[N+](C)(C)C)cc2)C(=O)N[C@@H](Cc2ccc3ccccc3c2)C(=O)NC2(C(=O)N[C@@H](CCCCN(C)C(C)=O)C(=O)N[C@@H](CC(N)=O)C(=O)N[C@@H](Cc3cccnc3)C(=O)N(C)CC(=O)N(C)C)CCOCC2)NC1=O [compound 510, cPEG3aCO-Pen(3)-N(N(Me)2)-T-F-K(NMeAc)-Pen(3)-TMAPF-2Nal-THP-K(NMeAc)-N-3Pya-Sar-CONMe2] ({Me3N+(CH2)2O(CH2)2O(CH2)2CO}-[Pen]D(NMe2)TF[Lys(Me)](Ac)[Pen]Y(X3)[2Nal][Thp][Lys(Me)](Ac)N[3Pal][Sar]-NMe2; disulfide 1-6) |
